Test results published in EPA's ToxValDB 9.5 (doi:10.2903/j.efsa.2010.1716).
≈ marks a conversion by molar mass, not a printed value.

How the values were obtained:
Aphidius rhopalosiphi = test: LR50; higher = less toxic; conditions: not reported; mortality
Apis mellifera = conditions: acute; duration: 48 hours; oral; unspecified; mortality
Oryctolagus sp. = conditions: reproduction developmental; body weight
Tagia sp. = conditions: acute; duration: 14 days; mortality
Danio rerio = conditions: acute; duration: 96 hours; mortality
Daphnia magna = conditions: chronic/long-term; duration: 21 days; reproduction
Bibionidae = conditions: chronic/long-term; duration: 28 days; seedling emergence

Work on c1ccc(CNc2ncnc3nc[nH]c23)cc1 [N-Benzyladenine] yielded an LR50 (Aphidius rhopalosiphi) of 36.2 g/ha, an LD50 (Rattus norvegicus; acute, oral, mortality) of 1580 mg/kg-day and an NOEL (Rattus norvegicus; reproduction developmental, body weight) of 30 mg/kg-day. For the same compound, the LD50 (Apis mellifera) was over 58.7 µg/piece, the NOAEL (Oryctolagus sp.) was under 10 mg/kg-day and the LC50 (Tagia sp.) was over 1000 mg/kg. For the same compound, the LC50 (Colinus virginianus; acute, oral, diet, mortality) was over 2880 mg/kg-day, the LD50 (Colinus virginianus; acute, oral, mortality) was 1600 mg/kg-day and the NOEC (Colinus virginianus; reproduction developmental) was 41.3 mg/kg-day. It also gave an LC50 (Danio rerio) of 32 µg/mL (≈ 142 µM), an NOEC (Daphnia magna) of 4 mg/L and an NOEC (Bibionidae) of 4.52 mg/L.
